Assay results: US20260265195A1, “SARM1 MODULATORS, PREPARATIONS, AND USES THEREOF” (SIRONAX LTD, priority 2022, published 2026)
pIC50: −log10 of the molar value.

Biological target: T1, SARM1 (50-724) (Homo sapiens, UniProt Q6SZW1)
T1 construct: Purified SARM1 (50-724) with a final concentration of 2 nM
T1 sequence (Q6SZW1 50-724): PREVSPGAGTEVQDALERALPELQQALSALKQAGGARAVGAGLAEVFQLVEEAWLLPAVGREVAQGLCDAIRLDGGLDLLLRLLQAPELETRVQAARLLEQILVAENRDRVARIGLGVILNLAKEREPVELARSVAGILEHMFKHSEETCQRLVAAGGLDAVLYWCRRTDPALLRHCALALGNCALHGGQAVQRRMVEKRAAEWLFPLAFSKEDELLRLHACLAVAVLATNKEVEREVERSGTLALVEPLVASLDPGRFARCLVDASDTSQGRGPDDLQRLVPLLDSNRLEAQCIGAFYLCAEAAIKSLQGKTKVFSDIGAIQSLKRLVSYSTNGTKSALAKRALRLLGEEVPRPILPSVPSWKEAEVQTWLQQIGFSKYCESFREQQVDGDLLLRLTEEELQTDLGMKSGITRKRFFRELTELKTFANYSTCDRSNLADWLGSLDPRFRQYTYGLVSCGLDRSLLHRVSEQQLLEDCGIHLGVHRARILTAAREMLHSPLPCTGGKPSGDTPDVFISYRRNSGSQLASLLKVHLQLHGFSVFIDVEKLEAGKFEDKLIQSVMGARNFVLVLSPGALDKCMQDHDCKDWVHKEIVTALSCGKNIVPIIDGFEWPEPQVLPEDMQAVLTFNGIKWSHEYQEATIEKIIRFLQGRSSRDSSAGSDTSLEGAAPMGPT
Test: SARM1 (50-724) enzymatic assay (NMN-activated NAD+ hydrolysis, LC-MS/MS readout)
Type: biochemical
Conditions: purified SARM1 (50-724) 2 nM, 200 μM NMN activator, 100 μM NAD+ substrate, 1 h at room temperature, read-out: IC50 (SARM1 inhibitory activity)
Protocol: Example II. SARM1 (50-724) Enzymatic Assay
An enzymatic assay was performed in a 384-well plate using Dulbecco's phosphate-buffered saline (PBS) as the reaction buffer. Purified SARM1 (50-724) with a final concentration of 2 nM was pre-incubated with a test compound at 1% DMSO final assay concentration for 15 min at room temperature. The reaction was initiated by adding a mixture of 200 μM nicotinamide mononucleotide (NMN) as activator and 100 μM NAD^+ as substrate. After 1 h of incubation at room temperature, the reaction was terminated with 10 times volume of 70% acetonitrile, then centrifuged at 3800 rpm for 10 min. The samples were analyzed using LC-MS/MS after diluted to a proper concentration by 10 mM ammonium acetate (pH 9.75).
ND means “not determined.”

**Q.** How did the pIC50 turn out when `O=C(c1nc2cc(C(F)(F)F)ccc2[nH]1)N(c1cccc(Cl)c1Cl)C1CNC1` [Compound 117, N-(azetidin-3-yl)-N-(2,3-dichlorophenyl)-5-(trifluoromethyl)-1H-benzo[d]imidazole-2-carboxamide] was run?
**A.** ≤ 6.00

**Q.** With `Cc1ccc2[nH]c(C(=O)NC(C)CC(C)C)c(CNc3ccccn3)c2c1` (centres unmarked) [Compound 89, 5-methyl-N-(4-methylpentan-2-yl)-3-((pyridin-2-ylamino)methyl)-1H-indole-2-carboxamide] as the compound, how does the pIC50 read?
**A.** 6.00 to 6.30

**Q.** How did the pIC50 turn out when `CN(C(=O)c1[nH]c2cc(Cl)ccc2c1CO)C1CCCC1` [Compound 41, 6-chloro-N-cyclopentyl-3-(hydroxymethyl)-N-methyl-1H-indole-2-carboxamide] was run?
**A.** ≤ 6.00

**Q.** With `COc1cc2[nH]c(C(=O)N(C)C3CCCC3)c(CO)c2cc1OC` [Compound 30, N-cyclopentyl-3-(hydroxymethyl)-5,6-dimethoxy-N-methyl-1H-indole-2-carboxamide] as the compound, how does the pIC50 read?
**A.** ≤ 6.00

**Q.** With `CC(C)(O)c1ccc2[nH]c(C(=O)N(CC3(F)COC3)c3cccc(Cl)c3Cl)nc2c1` [Compound 183] as the compound, how does the pIC50 read?
**A.** ≥ 7.00

**Q.** `O=C(c1nc2cc(C(F)(F)F)ccc2[nH]1)N(CC(O)CO)c1cccc(Cl)c1Cl` (racemic) [Compound 131, N-(2,3-dichlorophenyl)-N-(2,3-dihydroxypropyl)-5-(trifluoromethyl)-1H-benzo[d]imidazole-2-carboxamide] was tested. Which pIC50 did it give?
**A.** ≥ 7.00

**Q.** `N#Cc1cc(Cl)c(Cl)c(N(CCO)C(=O)c2nc3cc(C(F)(F)F)ccc3[nH]2)c1` [Compound 109, N-(2,3-dichloro-5-cyanophenyl)-N-(2-hydroxyethyl)-5-(trifluoromethyl)-1H-benzo[d]imidazole-2-carboxamide] was tested. Which pIC50 did it give?
**A.** 6.30 to 7.00

**Q.** How did the pIC50 turn out when `CC(C)(C)c1ccc2[nH]c(C(=O)N(CCO)c3cccc(F)c3Cl)nc2c1` [Compound 201] was run?
**A.** ≥ 7.00

**Q.** How did the pIC50 turn out when `O=C(c1nc2cc(C3CCCO3)ccc2[nH]1)N(CCO)c1cccc(Cl)c1Cl` (racemic) [Compound 196] was run?
**A.** ≥ 7.00

**Q.** How did the pIC50 turn out when `CN(C(=O)c1nc2c([nH]1)C(=O)CCC2)C1CCCC1` [Compound 61, N-cyclopentyl-N-methyl-7-oxo-4,5,6,7-tetrahydro-1H-benzo[d]imidazole-2-carboxamide] was run?
**A.** ≤ 6.00

**Q.** `O=C(c1nc2cc(C(F)(F)F)ccc2[nH]1)N(CCOC1COC1)c1cccc(Cl)c1Cl` [Compound 178, N-(2,3-dichlorophenyl)-N-(2-(oxetan-3-yloxy)ethyl)-5-(trifluoromethyl)-1H-benzo[d]imidazole-2-carboxamide] was tested. Which pIC50 did it give?
**A.** ≥ 7.00

**Q.** `Cc1ccc2[nH]c(C(=O)N(C)C3CCCC3)c(CNc3ncc[nH]3)c2c1` [Compound 77, 3-(((1H-imidazol-2-yl)amino)methyl)-N-cyclopentyl-N,5-dimethyl-1H-indole-2-carboxamide] was tested. Which pIC50 did it give?
**A.** ≤ 6.00

**Q.** With `NC(=O)CN(C(=O)c1nc2cc(C(F)(F)F)ccc2[nH]1)c1cccc(Cl)c1Cl` [Compound 141, N-(2-amino-2-oxoethyl)-N-(2,3-dichlorophenyl)-5-(trifluoromethyl)-1H-benzo[d]imidazole-2-carboxamide] as the compound, how does the pIC50 read?
**A.** ≥ 7.00

**Q.** `Cc1ccc2[nH]c(C(=O)N(C)c3ccccc3Cl)c(CO)c2c1` [Compound 6, N-(2-chlorophenyl)-3-(hydroxymethyl)-N,5-dimethyl-1H-indole-2-carboxamide] was tested. Which pIC50 did it give?
**A.** 6.30 to 7.00

**Q.** With `CN(C(=O)c1nc2c(C3CC(O)C3)cccc2[nH]1)C1CCCC1` (centres unmarked) [Compound 176, N-cyclopentyl-4-((1s,3s)-3-hydroxycyclobutyl)-N-methyl-1H-benzo[d]imidazole-2-carboxamide] as the compound, how does the pIC50 read?
**A.** ≤ 6.00

**Q.** With `Cc1ccc2[nH]c(C(=O)N(C)C3CCCC3)nc2c1C#N` [Compound 97, 4-cyano-N-cyclopentyl-N,5-dimethyl-1H-benzo[d]imidazole-2-carboxamide] as the compound, how does the pIC50 read?
**A.** 6.30 to 7.00

**Q.** `CC1(CN(C(=O)c2nc3cc(C(F)(F)F)ccc3[nH]2)c2cccc(Cl)c2Cl)COC1` [Compound 181, N-(2,3-dichlorophenyl)-N-((3-methyloxetan-3-yl)methyl)-5-(trifluoromethyl)-1H-benzo[d]imidazole-2-carboxamide] was tested. Which pIC50 did it give?
**A.** ≥ 7.00

**Q.** With `Cc1ccc2[nH]c(C(=O)N(CC3COC3)C3CCCC3)nc2c1` [Compound 65, N-cyclopentyl-5-methyl-N-(oxetan-3-ylmethyl)-1H-benzo[d]imidazole-2-carboxamide] as the compound, how does the pIC50 read?
**A.** ≤ 6.00

**Q.** With `Cc1ccc2[nH]c(C(=O)N(C)C3CCCC3)c(COc3nccs3)c2c1` [Compound 75, N-cyclopentyl-N,5-dimethyl-3-((thiazol-2-yloxy)methyl)-1H-indole-2-carboxamide] as the compound, how does the pIC50 read?
**A.** 6.00 to 6.30

**Q.** How did the pIC50 turn out when `CN(C(=O)c1nc2cc(C(F)(F)F)ccc2[nH]1)c1ccncc1OC(F)(F)F` [Compound 237, N-methyl-N-(3-(trifluoromethoxy)pyridin-4-yl)-5-(trifluoromethyl)-1H-benzo[d]imidazole-2-carboxamide] was run?
**A.** 6.00 to 6.30

**Q.** With `COC1CN(CCN(C(=O)c2nc3cc(C(F)(F)F)ccc3[nH]2)c2cccc(Cl)c2Cl)C1` [Compound 167, N-(2,3-dichlorophenyl)-N-(2-(3-methoxyazetidin-1-yl)ethyl)-5-(trifluoromethyl)-1H-benzo[d]imidazole-2-carboxamide] as the compound, how does the pIC50 read?
**A.** ≥ 7.00

**Q.** How did the pIC50 turn out when `O=C(c1nc2cc(C(F)(F)F)cc(F)c2[nH]1)N(c1cccc(F)c1Cl)C1CCS(=O)(=O)C1` (racemic) [Compound 192] was run?
**A.** ≥ 7.00

**Q.** With `CCc1cccc2[nH]c(C(=O)N(C)C3CCCC3)nc12` [Compound 94, N-cyclopentyl-4-ethyl-N-methyl-1H-benzo[d]imidazole-2-carboxamide] as the compound, how does the pIC50 read?
**A.** ≤ 6.00

**Q.** `O=C(c1nc2cc(C(F)(F)F)ccc2[nH]1)N(CC1CNC1)c1cccc(Cl)c1Cl` [Compound 114, N-(azetidin-3-ylmethyl)-N-(2,3-dichlorophenyl)-5-(trifluoromethyl)-1H-benzo[d]imidazole-2-carboxamide] was tested. Which pIC50 did it give?
**A.** 6.30 to 7.00

**Q.** How did the pIC50 turn out when `CN(C(=O)c1nc2ccccc2o1)C1CCCC1` [Compound 56, N-cyclopentyl-N-methylbenzo[d]oxazole-2-carboxamide] was run?
**A.** ≤ 6.00

**Q.** `Cc1c(Cl)cncc1N(CCO)C(=O)c1nc2c(Cl)c(Cl)ccc2[nH]1` [Compound 175] was tested. Which pIC50 did it give?
**A.** 6.00 to 6.30

**Q.** With `CC(C)(C#N)c1ccc2[nH]c(C(=O)N(CC(F)(F)CO)c3ccc(F)c(F)c3Cl)nc2c1` [Compound 208] as the compound, how does the pIC50 read?
**A.** ≥ 7.00

**Q.** With `N#Cc1ccc(Cl)c(Cl)c1N(CCO)C(=O)c1nc2cc(C(F)(F)F)ccc2[nH]1` [Compound 115, N-(2,3-dichloro-6-cyanophenyl)-N-(2-hydroxyethyl)-5-(trifluoromethyl)-1H-benzo[d]imidazole-2-carboxamide] as the compound, how does the pIC50 read?
**A.** ≥ 7.00

**Q.** `Cc1ccc2[nH]c(C(=O)N(C)c3ccc(Cl)c(Cl)c3)c(CO)c2c1` [Compound 12] was tested. Which pIC50 did it give?
**A.** ≤ 6.00

**Q.** `Cc1ccc2[nH]c(C(=O)N(C)C3CCCC3)c(CNc3ccccn3)c2c1` [Compound 82, N-cyclopentyl-N,5-dimethyl-3-((pyridin-2-ylamino)methyl)-1H-indole-2-carboxamide] was tested. Which pIC50 did it give?
**A.** 6.30 to 7.00

**Q.** How did the pIC50 turn out when `O=C(c1nc2cc(C(F)(F)F)ccc2[nH]1)N(c1cccc(Cl)c1Cl)C1CC(O)C1` (centres unmarked) [Compound 193, N-(2,3-dichlorophenyl)-N-(3-hydroxycyclobutyl)-5-(trifluoromethyl)-1H-benzo[d]imidazole-2-carboxamide] was run?
**A.** ≥ 7.00

**Q.** `O=C(c1nc2cc(C(F)(F)F)ccc2[nH]1)N(CC1CS(=O)(=O)C1)c1cccc(Cl)c1Cl` [Compound 180, N-(2,3-dichlorophenyl)-N-((1,1-dioxidothietan-3-yl)methyl)-5-(trifluoromethyl)-1H-benzo[d]imidazole-2-carboxamide] was tested. Which pIC50 did it give?
**A.** ≥ 7.00

**Q.** How did the pIC50 turn out when `Cc1ccnc(N(CCO)C(=O)c2nc3cc(C(F)(F)F)ccc3[nH]2)c1Cl` [Compound 138, N-(3-chloro-4-methylpyridin-2-yl)-N-(2-hydroxyethyl)-5-(trifluoromethyl)-1H-benzo[d]imidazole-2-carboxamide] was run?
**A.** 6.30 to 7.00

**Q.** With `O=C(c1nc2cc(C(F)(F)F)ccc2[nH]1)N(CCN1CC(O)C1)c1cccc(Cl)c1Cl` [Compound 179, N-(2,3-dichlorophenyl)-N-(2-(3-hydroxyazetidin-1-yl)ethyl)-5-(trifluoromethyl)-1H-benzo[d]imidazole-2-carboxamide] as the compound, how does the pIC50 read?
**A.** ≥ 7.00

**Q.** With `O=C(c1nc2cc(C(F)(F)F)ccc2[nH]1)N(CC(F)(F)CO)c1cc(F)ccc1Cl` [Compound 219, N-(2-chloro-5-fluorophenyl)-N-(2,2-difluoro-3-hydroxypropyl)-5-(trifluoromethyl)-1H-benzo[d]imidazole-2-carboxamide] as the compound, how does the pIC50 read?
**A.** 6.30 to 7.00
